Results: US20090215778A1, “Alpha-substituted Arylmethyl Piperazine Pyrazolo [1,5-alpha]Pyrimidine Amide Derivatives” (priority 2007, published 2009)

Columns and labels:
[1] = molecular target: T1, HIV Env six-helix bundle (6HB) structure (Human immunodeficiency virus type 1 group M subtype B, UniProt P04579); assay: Six-helix bundle (6HB) assay; type: cell-based, HIV-1 (strain RF)
T1 construct: H9 cells chronically infected with HIV-1 (H9/HIV-1RF); endogenous in cells; host or cells: H9 cells chronically infected with HIV-1 strain RF (Env is made from the virus in the infected cells, not by transfection)
T1 sequence (P04579 32-519): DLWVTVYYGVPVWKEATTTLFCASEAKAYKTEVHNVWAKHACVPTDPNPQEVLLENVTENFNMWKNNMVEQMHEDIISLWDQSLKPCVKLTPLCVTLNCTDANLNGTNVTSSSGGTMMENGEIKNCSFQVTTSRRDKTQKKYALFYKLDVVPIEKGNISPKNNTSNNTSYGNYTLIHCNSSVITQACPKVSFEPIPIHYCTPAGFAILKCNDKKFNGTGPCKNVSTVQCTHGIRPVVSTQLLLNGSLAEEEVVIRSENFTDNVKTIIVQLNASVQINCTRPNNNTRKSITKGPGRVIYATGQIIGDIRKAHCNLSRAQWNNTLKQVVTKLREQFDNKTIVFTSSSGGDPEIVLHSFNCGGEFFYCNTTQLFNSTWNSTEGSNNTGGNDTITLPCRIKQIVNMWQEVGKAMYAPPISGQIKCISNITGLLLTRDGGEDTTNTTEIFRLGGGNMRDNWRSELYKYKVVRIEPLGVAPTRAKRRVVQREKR
T1 sequence (P04579 520-865): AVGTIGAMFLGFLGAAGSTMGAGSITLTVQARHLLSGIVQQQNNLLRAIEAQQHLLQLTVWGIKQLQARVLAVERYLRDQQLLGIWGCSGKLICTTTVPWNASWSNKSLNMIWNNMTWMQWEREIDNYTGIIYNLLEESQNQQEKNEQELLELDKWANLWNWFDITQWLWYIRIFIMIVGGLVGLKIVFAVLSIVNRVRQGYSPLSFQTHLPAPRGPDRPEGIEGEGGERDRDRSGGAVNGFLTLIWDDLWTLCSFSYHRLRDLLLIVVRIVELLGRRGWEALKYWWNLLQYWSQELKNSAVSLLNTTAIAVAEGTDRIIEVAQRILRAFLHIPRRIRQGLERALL
Method in brief: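 Flow cytometry measured binding of a six-helix-bundle-specific polyclonal antibody, detected with PE-labelled secondary at 4 °C for 45 min, on H9/HIV-1 RF chronically infected cells. Compound was given 30 min at 37 °C before 1 μg/mL soluble CD4 induction for 1 h. Inhibition appears as reduced fluorescence.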

HIV-1, NL4-3 strain = assay: Virus infection assay (virus entry and single-cycle infection); type: cell-based; conditions: Human immunodeficiency virus 1, NL43, TZM-b1, read-out: Nl4
Method in brief: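 Single-cycle entry/infection read-out: β-galactosidase chemiluminescence measured one day after infection. Compounds were present during a 4 h, 37 °C exposure of TZM-b1 reporter cells to NL4-3 virus at MOI 0.01 plus DEAE-dextran (80 μg/mL final), followed by addition of complete medium.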

SMILES	IC50 [1]	IC50 (HIV-1, NL4-3 strain)
COC[C@@H](c1ccccc1)N1CCN(C(=O)c2cnn3c(C(F)(F)F)c(C)c(-c4ccc(OC)cc4)nc23)[C@H](C)C1 [methanone, [(2R)-4-[(1R)-2-methoxy-1-phenylethyl]-2-methyl-1-piperazinyl][5-(4-methoxyphenyl)-6-methyl-7-(trifluoromethyl)pyrazolo[1,5-α]pyrimidin-3-yl]-]	< 1 µM	< 1 µM
COc1ccc(-c2nc3c(C(=O)N4CCN([C@@H](C)c5ccc(C#N)s5)C[C@H]4C)cnn3c(C(F)(F)F)c2C)cc1 [2-thiophenecarbonitrile, 5-[(1S)-1-[(3R)-4-[[5-(4-methoxyphenyl)-6-methyl-7-(trifluoromethyl)pyrazolo[1,5-α]pyrimidin-3-yl]carbonyl]-3-methyl-1-piperazinyl]ethyl]-]	< 1 µM	1.1 to 10 µM
COc1ccc(-c2nc3c(C(=O)N4CCN([C@@H](CO)c5ccco5)C[C@H]4C)cnn3c(C(F)(F)F)c2C)cc1 [methanone, [(2R)-4-[(1S)-1-(2-furanyl)-2-hydroxyethyl]-2-methyl-1-piperazinyl][5-(4-methoxyphenyl)-6-methyl-7-(trifluoromethyl)pyrazolo[1,5-α]pyrimidin-3-yl]-]	< 1 µM	< 1 µM
COc1ccc(-c2nc3c(C(=O)N4CCN(C(CO)c5c(F)ccc(OC)c5F)C[C@H]4C)cnn3c(C(F)(F)F)c2C)cc1 (stereo partly drawn) [methanone, [(2R)-4-[1-(2,6-difluoro-3-methoxyphenyl)-2-hydroxyethyl]-2-methyl-1-piperazinyl][5-(4-methoxyphenyl)-6-methyl-7-(trifluoromethyl)pyrazolo[1,5-α]pyrimidin-3-yl]-]	< 1 µM	< 1 µM
COc1ccc(-c2nc3c(C(=O)N4CCN(C(CO)c5cccs5)C[C@H]4C)cnn3c(C(F)(F)F)c2C)cc1 (stereo partly drawn) [methanone, [(2R)-4-[2-hydroxy-1-(2-thienyl)ethyl]-2-methyl-1-piperazinyl][5-(4-methoxyphenyl)-6-methyl-7-(trifluoromethyl)pyrazolo[1,5-α]pyrimidin-3-yl]-]	< 1 µM	< 1 µM
COc1ccc(-c2nc3c(C(=O)N4CCN([C@@H](C)c5ccco5)C[C@H]4C)cnn3c(C(F)(F)F)c2C)cc1 [methanone, [(2R)-4-[(1S)-1-(2-furanyl)ethyl]-2-methyl-1-piperazinyl][5-(4-methoxyphenyl)-6-methyl-7-(trifluoromethyl)pyrazolo[1,5-α]pyrimidin-3-yl]-]	< 1 µM	< 1 µM
COc1ccc(-c2nc3c(C(=O)N4CCN([C@@H](CO)c5ccccc5)C[C@H]4C)cnn3c(N(C)C)c2F)cc1 [methanone, [7-(dimethylamino)-6-fluoro-5-(4-methoxyphenyl)pyrazolo[1,5-α]pyrimidin-3-yl][(2R)-4-[(1R)-2-hydroxy-1-phenylethyl]-2-methyl-1-piperazinyl]-]	< 1 µM	< 1 µM
COc1ccc(-c2nc3c(C(=O)N4CCN(C(CO)c5cccc(N6CCNCC6)c5)C[C@H]4C)cnn3c(C(F)(F)F)c2C)cc1 (stereo partly drawn) [methanone, [(2R)-4-[2-hydroxy-1-[3-(1-piperazinyl)phenyl]ethyl]-2-methyl-1-piperazinyl][5-(4-methoxyphenyl)-6-methyl-7-(trifluoromethyl)pyrazolo[1,5-α]pyrimidin-3-yl]-]	> 10.1 µM	> 10.1 µM
COc1ccc(-c2nc3c(C(=O)N4CCN([C@@H](C)c5ccc(NC(C)=O)cc5)C[C@H]4C)cnn3c(C(F)(F)F)c2C)cc1 [acetamide, N-[4-[(1S)-1-[(3R)-4-[[5-(4-methoxyphenyl)-6-methyl-7-(trifluoromethyl)pyrazolo[1,5-α]pyrimidin-3-yl]carbonyl]-3-methyl-1-piperazinyl]ethyl]phenyl]-]	> 10.1 µM	1.1 to 10 µM
COc1ccc(-c2nc3c(C(=O)N4CCN(C(CO)c5cc(F)ccc5OC)C[C@H]4C)cnn3c(C(F)(F)F)c2C)cc1 (stereo partly drawn) [methanone, [(2R)-4-[1-(5-fluoro-2-methoxyphenyl)-2-hydroxyethyl]-2-methyl-1-piperazinyl][5-(4-methoxyphenyl)-6-methyl-7-(trifluoromethyl)pyrazolo[1,5-α]pyrimidin-3-yl]-]	< 1 µM	< 1 µM
COc1ccc(-c2nc3c(C(=O)N4CCN([C@H](C)c5cc(F)c(F)c(F)c5)C[C@H]4C)cnn3c(C(F)(F)F)c2C)cc1 [methanone, [5-(4-methoxyphenyl)-6-methyl-7-(trifluoromethyl)pyrazolo[1,5-α]pyrimidin-3-yl][(2R)-2-methyl-4-[(1R)-1-(3,4,5-trifluorophenyl)ethyl]-1-piperazinyl]-]	< 1 µM	< 1 µM
COc1ccc(-c2nc3c(C(=O)N4CCN([C@H](CO)c5ccccc5)C[C@H]4C)cnn3c(C(F)(F)F)c2C)cc1 [methanone, [(2R)-4-[(1S)-2-hydroxy-1-phenylethyl]-2-methyl-1-piperazinyl][5-(4-methoxyphenyl)-6-methyl-7-(trifluoromethyl)pyrazolo[1,5-α]pyrimidin-3-yl]-]	< 1 µM	< 1 µM
